{
  "source": "PubChem BioAssay AID1963986",
  "about": "(Molecular Pharmacology Branch, DTP, NCI, 2024);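 also: spheroids exposed to compound for 7 days before viability read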;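 as to viability, T/C: 100% = DMSO vehicle-treated spheroids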",
  "test_system": "171881-019-R-J1-PDC tumor spheroid viability",
  "assay": "Anticancer human tumor 171881-019-R-J1-PDC patient-derived invasive breast carcinoma cell line growth inhibition [PI3K]",
  "conditions": "spheroids with HUVEC and MSC; for IC50: curve of first compound; for viability, T/C: stronger effect = lower value",
  "text": "Combinatorial screen of targeted agents with the PI3K inhibitors inavolisib, alpelisib, duvelisib, and copanlisib in multi-cell type tumor spheroids\nA high-throughput screen of multi-cell type tumor spheroids was designed to identify active combinations of targeted small molecules and PI3K pathway inhibitors. Complex spheroids include a stromal component modeled by human endothelial cells (HUVEC) and fibroblasts modeled by human mesenchymal stem cells (MSCs). The concentration ranges selected for each drug and investigational agent were based upon clinically achievable concentrations if the clinical Cmax of the agent was known.\nCompounds. The drugs and investigational agents: inavolisib (NSC800729), alpelisib (NSC765974), duvelisib (NSC772469), copanlisib (NSC816437), ipatasertib (NSC767898), afuresertib (NSC778305), talazoparib (NSC767125), sapanisertib (NSC764658), selumetinib (NSC741078), tovorafenib (DAY101, NSC766906), vemurafenib (NSC761431), ravoxertinib (NSC781343), sotorasib (NSC818433), MRTX1133 (NSC 836407), abemaciclib (NSC 768073), palbociclib (NSC758247), venetoclax (NSC 766270), SY5609 (NSC837396), enzalutamide (NSC755605), and darolutamide (NSC825331), were obtained from the National Cancer Institute (NCI) Developmental Therapeutics Program Chemical Repository. The FDA-approved anticancer drug set is available from the NCI Developmental Therapeutics Program. […] The stock solutions were prepared in dimethyl sulfoxide (DMSO, Sigma-Aldrich, St. Louis, MO, cat. D2650) at 800-fold the tested concentration and stored at -70 degrees C prior to their use. All drugs and investigational agents were tested over a range starting from a high concentration at or near the clinical Cmax and decreasing in half-log increments. If the clinical Cmax for an agent had not been determined, the highest concentration tested was 10 microM.\nCell Culture. All cells were maintained in an incubator at 37 degrees C and 5% CO2 with 95% humidity. The PDC lines were cultured according to standard operating procedures established by the NCI PDMR (https://pdmr.cancer.gov/sops/default.htm). All PDCs were thawed and cultured in Matrigel-coated flasks prepared with a working solution of 1X Ham's F-12 nutrient mix, without supplementation (Invitrogen, Waltham, MA, cat. 11765054), 100 U/mL penicillin-streptomycin (Invitrogen, cat. 15140122), and 2.5% Matrigel (Corning Inc., Corning, NY, cat. 354248) for the first three passages. The 354836-022-R-J1-PDC, 475296-252-R-J1-PDC, and 997726-040-R-J2-PDC lines were cultured in 6A media, which includes advanced DMEM/F-12 (Thermo Fisher Scientific, cat. 12634028), 10 mM HEPES (Thermo Fisher Scientific, cat. 15630080), 1X GlutaMAX supplement (Thermo Fisher Scientific, cat. 35050061), 0.1 mg/mL primocin (InvivoGen, San Diego, CA, cat. ant-pm-2), 10% defined fetal bovine serum, heat inactivated (HyClone Laboratories Inc., Logan, UT, cat. SH30070.03HI), 50% L-WRN conditioned media (ATCC, cat. CRL-3276), 1.25 mM N-Acetyl-L-cysteine (Sigma-Aldrich, cat. A9165), 10 mM nicotinamide (Sigma-Aldrich, cat. N0636), 1X B-27 supplement (Thermo Fisher Scientific, cat. 17504044), 1X N-2 supplement (Thermo Fisher Scientific, cat. 17502048), and 10 microM Y-27632 dihydrochloride (Tocris Bioscience, Bristol, United Kingdom, cat. 1254). The 624824-186-R-J2-PDC line was cultured in 6C/Colon 1B media, which includes all 6A media components plus 50 ng/mL human EGF recombinant protein (Thermo Fisher Scientific, cat. PHG0311). […]",
  "data": [
    {"smiles": "CCCS(=O)(=O)Nc1ccc(F)c(C(=O)c2c[nH]c3ncc(-c4ccc(Cl)cc4)cc23)c1F", "note": "+ CC(Nc1ccc2c(c1)OCCn1cc(N3C(=O)OCC3C(F)F)nc1-2)C(N)=O", "values": [
      {"measurement": "IC50", "setting": "second compound 0.00316 µM", "value": 5.81, "unit": "µM"},
      {"measurement": "IC50", "setting": "second compound 0.01 µM", "value": 5.75, "unit": "µM"},
      {"measurement": "IC50", "setting": "second compound 0.0316 µM", "value": 4.85, "unit": "µM"},
      {"measurement": "IC50", "setting": "second compound 0.1 µM", "value": 3.48, "unit": "µM"},
      {"measurement": "IC50", "setting": "second compound 0.316 µM", "value": "< 0.0316", "unit": "µM"},
      {"measurement": "IC50", "setting": "second compound 1 µM", "value": "< 0.0316", "unit": "µM"},
      {"measurement": "viability, T/C", "setting": "second compound 0.00316 µM, first compound 0.0316 µM", "value": 92.3, "unit": "%"},
      {"measurement": "viability, T/C", "setting": "second compound 0.00316 µM, first compound 0.1 µM", "value": 109, "unit": "%"},
      {"measurement": "viability, T/C", "setting": "second compound 0.00316 µM, first compound 0.316 µM", "value": 92.9, "unit": "%"},
      {"measurement": "viability, T/C", "setting": "second compound 0.00316 µM, first compound 1 µM", "value": 109, "unit": "%"},
      {"measurement": "viability, T/C", "setting": "second compound 0.00316 µM, first compound 3.16 µM", "value": 94.6, "unit": "%"},
      {"measurement": "viability, T/C", "setting": "second compound 0.00316 µM, first compound 10 µM", "value": 10, "unit": "%"},
      {"measurement": "viability, T/C", "setting": "second compound 0.01 µM, first compound 0.0316 µM", "value": 78.4, "unit": "%"},
      {"measurement": "viability, T/C", "setting": "second compound 0.01 µM, first compound 0.1 µM", "value": 87.2, "unit": "%"},
      {"measurement": "viability, T/C", "setting": "second compound 0.01 µM, first compound 0.316 µM", "value": 101, "unit": "%"},
      {"measurement": "viability, T/C", "setting": "second compound 0.01 µM, first compound 1 µM", "value": 102, "unit": "%"},
      {"measurement": "viability, T/C", "setting": "second compound 0.01 µM, first compound 3.16 µM", "value": 92.6, "unit": "%"},
      {"measurement": "viability, T/C", "setting": "second compound 0.01 µM, first compound 10 µM", "value": 11.1, "unit": "%"},
      {"measurement": "viability, T/C", "setting": "second compound 0.0316 µM, first compound 0.0316 µM", "value": 63.3, "unit": "%"},
      {"measurement": "viability, T/C", "setting": "second compound 0.0316 µM, first compound 0.1 µM", "value": 64.9, "unit": "%"},
      {"measurement": "viability, T/C", "setting": "second compound 0.0316 µM, first compound 0.316 µM", "value": 81.9, "unit": "%"},
      {"measurement": "viability, T/C", "setting": "second compound 0.0316 µM, first compound 1 µM", "value": 83.3, "unit": "%"},
      {"measurement": "viability, T/C", "setting": "second compound 0.0316 µM, first compound 3.16 µM", "value": 83, "unit": "%"},
      {"measurement": "viability, T/C", "setting": "second compound 0.0316 µM, first compound 10 µM", "value": 7.38, "unit": "%"},
      {"measurement": "viability, T/C", "setting": "second compound 0.1 µM, first compound 0.0316 µM", "value": 46.7, "unit": "%"},
      {"measurement": "viability, T/C", "setting": "second compound 0.1 µM, first compound 0.1 µM", "value": 51.4, "unit": "%"},
      {"measurement": "viability, T/C", "setting": "second compound 0.1 µM, first compound 0.316 µM", "value": 53.9, "unit": "%"},
      {"measurement": "viability, T/C", "setting": "second compound 0.1 µM, first compound 1 µM", "value": 57, "unit": "%"},
      {"measurement": "viability, T/C", "setting": "second compound 0.1 µM, first compound 3.16 µM", "value": 61.7, "unit": "%"},
      {"measurement": "viability, T/C", "setting": "second compound 0.1 µM, first compound 10 µM", "value": 5.11, "unit": "%"},
      {"measurement": "viability, T/C", "setting": "second compound 0.316 µM, first compound 0.0316 µM", "value": 32.5, "unit": "%"},
      {"measurement": "viability, T/C", "setting": "second compound 0.316 µM, first compound 0.1 µM", "value": 32.4, "unit": "%"},
      {"measurement": "viability, T/C", "setting": "second compound 0.316 µM, first compound 0.316 µM", "value": 42, "unit": "%"},
      {"measurement": "viability, T/C", "setting": "second compound 0.316 µM, first compound 1 µM", "value": 44.7, "unit": "%"},
      {"measurement": "viability, T/C", "setting": "second compound 0.316 µM, first compound 3.16 µM", "value": 42.3, "unit": "%"},
      {"measurement": "viability, T/C", "setting": "second compound 0.316 µM, first compound 10 µM", "value": 5, "unit": "%"},
      {"measurement": "viability, T/C", "setting": "second compound 1 µM, first compound 0.0316 µM", "value": 21, "unit": "%"},
      {"measurement": "viability, T/C", "setting": "second compound 1 µM, first compound 0.1 µM", "value": 28.4, "unit": "%"},
      {"measurement": "viability, T/C", "setting": "second compound 1 µM, first compound 0.316 µM", "value": 28.4, "unit": "%"},
      {"measurement": "viability, T/C", "setting": "second compound 1 µM, first compound 1 µM", "value": 33.5, "unit": "%"},
      {"measurement": "viability, T/C", "setting": "second compound 1 µM, first compound 3.16 µM", "value": 35.6, "unit": "%"},
      {"measurement": "viability, T/C", "setting": "second compound 1 µM, first compound 10 µM", "value": 3.55, "unit": "%"}
    ]}
  ]
}
